Test results taken from publication PMC6047530 (Journal of medicinal chemistry, 2018).
“Also recorded” adds a separate entry of the source.

Experiments:
MEF WT cells = test: Cell viability assay in MEF WT cells; format: cell-based, mouse; settings: for EC50: Mus musculus, read-out: WT EC50; for cell death, in words: MEF WT
MEF PARP-1 KO−/− cells = test: Cell viability assay in MEF PARP-1 KO−/− cells; format: cell-based, mouse; settings: for EC50: Mus musculus, read-out: PARP-1−/− EC50; for cell death, in words: MEF PARP-1 KO−/−
MEF PARP-2 KO−/− cells = test: Cell viability assay in MEF PARP-2 KO−/− cells; format: cell-based; settings: Mus musculus, read-out: PARP-2−/− EC50
[1] = tested on: γH2AX foci in OVCAR8 cells; test: Immunofluorescent cell microscopy of γH2AX foci; format: cell-based; settings: 0.01-10 μM, 24 hrs
[2] = tested on: OVCAR8 (BRCA1-methylated) cell line; test: Cytotoxicity screen in OVCAR8 cells at 10 μM; format: cell-based
PARP-1 = PARP-1 (Homo sapiens, UniProt P09874); test: PARP-1 radioligand binding; settings: 10c vs 10a; 15b vs 15a
[3] = tested on: poly(ADP-ribose) (PAR), biochemical product of PARP-1; test: Western blot analysis of PAR expression in OVCAR8 cells; format: cell-based; settings: OVCAR8 cells treated 6 h
UWB1.289 cells = test: Cell viability assay in UWB1.289; format: cell-based; settings: UWB1.289 isogenic cell lines
other PARPs = test: PARPs enzyme inhibition panel at 10 μM; format: biochemical

Sequence of PARP-1 (P09874 whole entry): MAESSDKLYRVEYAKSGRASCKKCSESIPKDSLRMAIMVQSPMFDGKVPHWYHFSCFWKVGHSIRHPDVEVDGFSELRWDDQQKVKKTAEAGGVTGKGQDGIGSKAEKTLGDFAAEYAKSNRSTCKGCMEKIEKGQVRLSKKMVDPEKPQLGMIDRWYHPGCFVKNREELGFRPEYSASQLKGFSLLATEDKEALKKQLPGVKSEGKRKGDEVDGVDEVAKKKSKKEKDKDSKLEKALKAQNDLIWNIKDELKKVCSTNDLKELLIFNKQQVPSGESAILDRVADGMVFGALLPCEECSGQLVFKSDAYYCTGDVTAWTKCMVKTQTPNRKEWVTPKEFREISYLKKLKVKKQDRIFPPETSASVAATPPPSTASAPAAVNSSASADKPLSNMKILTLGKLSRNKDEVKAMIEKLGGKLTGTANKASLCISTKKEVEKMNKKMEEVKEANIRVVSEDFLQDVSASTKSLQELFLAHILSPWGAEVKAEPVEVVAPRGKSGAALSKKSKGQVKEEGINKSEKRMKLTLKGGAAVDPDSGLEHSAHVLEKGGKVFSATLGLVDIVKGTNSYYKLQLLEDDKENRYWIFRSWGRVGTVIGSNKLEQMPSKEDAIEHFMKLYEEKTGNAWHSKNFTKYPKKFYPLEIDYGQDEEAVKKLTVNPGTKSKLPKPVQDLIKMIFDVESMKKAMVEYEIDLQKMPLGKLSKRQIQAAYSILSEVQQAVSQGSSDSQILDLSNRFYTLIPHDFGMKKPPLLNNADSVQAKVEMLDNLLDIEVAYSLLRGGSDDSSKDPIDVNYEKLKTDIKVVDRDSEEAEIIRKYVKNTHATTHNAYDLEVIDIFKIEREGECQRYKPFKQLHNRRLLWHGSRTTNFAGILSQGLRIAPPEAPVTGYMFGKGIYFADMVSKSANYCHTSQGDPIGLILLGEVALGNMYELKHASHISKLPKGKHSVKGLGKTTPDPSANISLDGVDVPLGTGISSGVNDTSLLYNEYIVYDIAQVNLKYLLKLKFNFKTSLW

SMILES	EC50 (MEF WT cells) [µM]	EC50 (MEF PARP-1 KO−/− cells) [µM]	other results
O=C(c1cc(Cc2n[nH]c(=O)c3ccccc23)ccc1F)N1CCC2(CCNCC2)CC1 [Compound 17c, 4-(4-Fluoro-3-(3,9-diazaspiro[5.5]undecane-3-carbonyl)benzyl)phthalazin-1(2H)-one]	> 100	> 100	
O=C(c1cc(Cc2n[nH]c(=O)c3ccccc23)ccc1F)N1CCC12CCNCC2 [Compound 13c, 4-(4-Fluoro-3-(1,7-diazaspiro[3.5]nonane-1-carbonyl)benzyl)phthalazin-1(2H)-one]	> 100	> 100	
O=C(c1cc(Cc2n[nH]c(=O)c3ccccc23)ccc1F)N1CC2(CCNCC2)C1 [Compound 12c, 4-(4-Fluoro-3-(2,7-diazaspiro[3.5]nonane-2-carbonyl)benzyl)phthalazin-1(2H)-one]	> 100	> 100	
CC(C)(C)OC(=O)N1CC2(CCN2C(=O)c2cc(Cc3n[nH]c(=O)c4ccccc34)ccc2F)C1 [Compound 11b, Tert-butyl 1-(2-fluoro-5-((4-oxo-3,4-dihydrophthalazin-1-yl)methyl)benzoyl)-1,6-diazaspiro[3.3]heptane-6-carboxylate]		> 100	
CC(C)(C)OC(=O)N1CCC2(CC1)CCN2C(=O)c1cc(Cc2n[nH]c(=O)c3ccccc23)ccc1F [Compound 13b, Tert-butyl 1-(2-fluoro-5-((4-oxo-3,4-dihydrophthalazin-1-yl)methyl)benzoyl)-1,7-diazaspiro[3.5]nonane-7-carboxylate]		> 100	
O=C(c1cc(Cc2n[nH]c(=O)c3ccccc23)ccc1F)N1CC2(COC2)C1 [Compound 10b, 4-(4-Fluoro-3-(2-oxa-6-azaspiro[3.3]heptane-6-carbonyl)benzyl)phthalazin-1(2H)-one]		> 100	
O=C(c1cc(Cc2n[nH]c(=O)c3ccccc23)ccc1F)N1CCC2(CCNCC2)C1 [Compound 16c, 4-(4-Fluoro-3-(2,8-diazaspiro[4.5]decane-2-carbonyl)benzyl)phthalazin-1(2H)-one]	> 100	> 100	EC50 (MEF PARP-2 KO−/− cells): > 100 µM
O=C(c1cc(Cc2n[nH]c(=O)c3ccccc23)ccc1F)N1CCC12CCC2 [Compound 11a, 4-(4-Fluoro-3-(1-azaspiro[3.3]heptane-1-carbonyl)benzyl)phthalazin-1(2H)-one]		> 100	
O=C(C1CC1)N1CCC2(CC1)CCN2C(=O)c1cc(Cc2n[nH]c(=O)c3ccccc23)ccc1F [Compound 13d, 4-(3-(7-(Cyclopropanecarbonyl)-1,7-diazaspiro[3.5]nonane-1-carbonyl)-4-fluorobenzyl)phthalazin-1(2H)-one]		> 100	
O=C(c1cc(Cc2n[nH]c(=O)c3ccccc23)ccc1F)N1CCC2(CCNC2)C1 (centres unmarked) [Compound 15c, 4-(4-Fluoro-3-(2,7-diazaspiro[4.4]nonane-2-carbonyl)benzyl)phthalazin-1(2H)-one]	> 100	> 100	
O=C(c1cc(Cc2n[nH]c(=O)c3ccccc23)ccc1F)N1CCC2(CCN(C(=O)C3CC3)C2)C1 (centres unmarked) [Compound 15d, 4-(3-(7-(Cyclopropanecarbonyl)-2,7-dizaspiro[4.4]nonane-2-carbonyl)-4-fluorobenzyl)phthalazin-1(2H)-one]	> 100	> 100	
O=C(c1cc(Cc2n[nH]c(=O)c3ccccc23)ccc1F)N1CC2(CCN(C(=O)C3CC3)CC2)C1 [Compound 12d, 4-(3-(7-(Cyclopropanecarbonyl)-2,7-diazaspiro[3.5]nonane-2-carbonyl)-4-fluorobenzyl)phthalazin-1(2H)-one]		> 100	
O=C(c1cc(Cc2n[nH]c(=O)c3ccccc23)ccc1F)N1CCC2(CCCCC2)CC1 [Compound 17a, 4-(4-Fluoro-3-(3-azaspiro[5.5]undecane-3-carbonyl)benzyl)phthalazin-1(2H)-one]		> 100	
O=C(c1cc(Cc2n[nH]c(=O)c3ccccc23)ccc1F)N1CCN(C(=O)C2CC2)CC1 [olaparib, reference compound]			DNA damage (γ-H2AX foci), in words [1]: induced DNA damage in a dose dependent manner
O=C(c1cc(Cc2n[nH]c(=O)c3ccccc23)ccc1F)N1CCC2(CC1)CCN(C(=O)C1CC1)CC2 [Compound 17d, 4-(3-(9-(Cyclopropanecarbonyl)-3,9-diazaspiro[5.5]undecane-3-carbonyl)-4-fluorobenzyl)phthalazin-1(2H)-one]			cytotoxicity / anti-proliferative activity (in words) [2]: poor cytotoxic properties
O=C(c1cc(Cc2n[nH]c(=O)c3ccccc23)ccc1F)N1CC2(CCC2)C1 [Compound 10a, 4-(4-Fluoro-3-(2-azaspiro[3.3]heptane-2-carbonyl)benzyl)phthalazin-1(2H)-one]		> 100	cytotoxicity / anti-proliferative activity (in words) [2]: poor cytotoxic properties
CC(C)(C)OC(=O)N1CCC2(CCN(C(=O)c3cc(Cc4n[nH]c(=O)c5ccccc45)ccc3F)C2)C1 (centres unmarked) [Compound 15b, Tert-butyl 7-(2-fluoro-5-((4-oxo-3,4-dihydrophthalazin-1-yl)methyl)benzoyl)-2,7-diazaspiro[4.4]nonane-2-carboxylate]			fold lower PARP-1 affinity compared to methylene congener (PARP-1): ~ 85 fold; inhibition of PARP activity (PAR synthesis), in words [3]: inhibit PARP activity in a manner similar to olaparib; DNA damage (γ-H2AX foci), in words [1]: induced DNA damage at micromolar concentrations; also recorded: induced DNA damage in a dose dependent manner
O=C(c1cc(Cc2n[nH]c(=O)c3ccccc23)ccc1F)N1CC2(C1)CN(C(=O)C1CC1)C2 [Compound 10e, 4-(3-(6-(Cyclopropanecarbonyl)-2,6-diazaspiro[3.3]heptane-2-carbonyl)-4-fluorobenzyl)phthalazin-1(2H)-one]	> 100	> 100	cell death, in words (MEF WT cells): no measurable cell death; cell death, in words (MEF PARP-1 KO−/− cells): no measurable cell death; cytotoxic concentration (EC50) relative to olaparib (UWB1.289 cells): approximately 7 fold; inhibition of PARP activity (PAR synthesis), in words [3]: inhibit PARP activity in a manner similar to olaparib; DNA damage (γ-H2AX foci), in words [1]: did not induce DNA damage at similar drug concentrations as olaparib; also recorded: unable to induce DNA damage at concentrations as high as 10 μM; off-target enzymatic inhibition of other PARPs, in words (other PARPs): minimal off-target activity; also recorded: less enzymatic inhibition with most other PARPs
O=C(C1CC1)N1CC2(CCN2C(=O)c2cc(Cc3n[nH]c(=O)c4ccccc34)ccc2F)C1 [Compound 11d, 4-(3-(6-(Cyclopropanecarbonyl)-1,6-diazaspiro[3.3]heptane-1-carbonyl)-4-fluorobenzyl)phthalazin-1(2H)-one]		> 100	
O=C(c1cc(Cc2n[nH]c(=O)c3ccccc23)ccc1F)N1CC2(CCCCC2)C1 [Compound 12a, 4-(4-Fluoro-3-(2-azaspiro[3.5]nonane-2-carbonyl)benzyl)phthalazin-1(2H)-one]			cytotoxicity / anti-proliferative activity (in words) [2]: poor cytotoxic properties
O=C(c1cc(Cc2n[nH]c(=O)c3ccccc23)ccc1F)N1CCC12CNC2 [Compound 11c, 4-(4-Fluoro-3-(1,6-diazaspiro[3.3]heptane-1-carbonyl)benzyl)phthalazin-1(2H)-one]	> 100	> 100	EC50 (MEF PARP-2 KO−/− cells): > 100 µM
CC(C)(C)OC(=O)N1CC2(C1)CN(C(=O)c1cc(Cc3n[nH]c(=O)c4ccccc34)ccc1F)C2 [Compound 10c, Tert-butyl 6-(2-fluoro-5-((4-oxo-3,4-dihydrophthalazin-1-yl)methyl)benzoyl)-2,6-diazaspiro[3.3]heptane-2-carboxylate]		> 100	fold lower PARP-1 affinity compared to methylene congener (PARP-1): ~ 16 fold
O=C(c1cc(Cc2n[nH]c(=O)c3ccccc23)ccc1F)N1CCC2(CCN(C(=O)C3CC3)CC2)C1 [Compound 16d, 4-(3-(8-(Cyclopropanecarbonyl)-2,8-diazaspiro[4.5]decane-2-carbonyl)-4-fluorobenzyl)phthalazin-1(2H)-one]		> 100	
O=C(c1cc(Cc2n[nH]c(=O)c3ccccc23)ccc1F)N1CC2(CNC2)C1 [Compound 10d, 4-(4-Fluoro-3-(2,6-diazaspiro[3.3]heptane-2-carbonyl)benzyl)phthalazin-1(2H)-one]	> 100	> 100	cell death, in words (MEF WT cells): no cell death was observed; cell death, in words (MEF PARP-1 KO−/− cells): no cell death was observed; EC50 (MEF PARP-2 KO−/− cells): > 100 µM
O=C(c1cc(Cc2n[nH]c(=O)c3ccccc23)ccc1F)N1CCC2(CCCC2)C1 [Compound 15a, 4-(4-Fluoro-3-(2-azaspiro[4.4]nonane-2-carbonyl)benzyl)phthalazin-1(2H)-one]		> 100	
O=C(c1cc(Cc2n[nH]c(=O)c3ccccc23)ccc1F)N1CCC12CCCCC2 [Compound 13a, 4-(4-Fluoro-3-(1-azaspiro[3.5]nonane-1-carbonyl)benzyl)phthalazin-1(2H)-one]		> 100	
